Source: patent US20180353483A1, “PHARMACEUTICAL COMPOSITIONS AND METHODS FOR INDOLEAMINE, 2, 3-DIOXYGENASE INHIBITION AND INDICATIONS THEREFOR” (Incyte Corporation, priority 2015, published 2018)
Entries after “also recorded” stand apart in the source; their conditions may differ. Like-named read-outs stand apart in the source and are kept apart here.

Tests used:
[1] = Dose-escalation study of Compound 1 pharmacokinetics in subjects with advanced malignancies (tablets of Formulations 1 and/or 3, fasted; food effect cohort); type: in vivo, human; conditions: for AUC: read-out: AUC0-τ
From the text: Thus, Cmax, Cmin and Tmax were taken directly from the observed plasma concentration data or imputed in some cases. The terminal-phase disposition rate constant (λz) was estimated using a log-linear regression of the concentration data in the terminal disposition phase, and t1/2 was estimated as ln(2)/λz. AUC0-t and AUC0-τ was estimated using the linear trapezoidal rule for increasing concentrations and the log-trapezoidal rule for decreasing concentrations. At the PK steady-state, the apparent oral-dose clearance, CL/F, was estimated as Dose/AUC0-τ, and Vz/F was estimated as Dose/[AUC0-τ*λz].
The log-transformed pharmacokinetic parameters were compared among the BID dose groups using a 1-factor ANOVA with the factor for dose. Dose-dependent exposure parameters (Cmax and AUC) were normalized to a common dose before statistical comparisons were made.
The oral bioavailability (F) and systemic clearance (CL) were estimated. […] This method of estimation assumes near complete oral absorption and the liver being the primary organ for drug clearance. […] The above equation was modified to incorporate the term of Fa to accommodate an incomplete absorption: CL=(QH*Fa*CL/F)/(QH+Fa*CL/F).

[2] = Unbound fraction in plasma; type: in vitro ADME
[3] = male, dog, in vivo, 500 mg/kg/day
[4] = 50 mg BID, steady state, geometric mean
[5] = 50 mg BID, steady state, mean ± SD
[6] = 50 mg QD, steady state, mean ± SD
[7] = 100 mg BID, steady state, geometric mean
[8] = 100 mg BID, steady state, mean ± SD
[9] = 300 mg BID, steady state, geometric mean
[10] = 300 mg BID, steady state, mean ± SD
[11] = 400 mg BID, steady state, geometric mean
[12] = 400 mg BID, steady state, mean ± SD
[13] = 500 mg BID, steady state, geometric mean
[14] = 500 mg BID, steady state, mean ± SD
[15] = 600 mg BID, steady state, geometric mean
[16] = 600 mg BID, steady state, mean ± SD
[17] = 700 mg BID, steady state, geometric mean
[18] = 700 mg BID, steady state, mean ± SD
[19] = BID doses 50 to 700 mg, steady state
[20] = human, plasma, oral, 50 mg, 50 mg QD, steady state, geometric mean
[21] = human, plasma, oral, 100 mg, 100 mg BID, steady state, geometric mean
[22] = human, plasma, oral, 300 mg, 300 mg BID, steady state, geometric mean
[23] = human, plasma, oral, 400 mg, 400 mg BID, steady state, geometric mean
[24] = human, plasma, oral, 500 mg, 500 mg BID, steady state, geometric mean
[25] = human, plasma, oral, 600 mg, 600 mg BID, steady state, geometric mean
[26] = human, plasma, oral, 700 mg, 700 mg BID, steady state, geometric mean

## NS(=O)(=O)NCCNc1nonc1C(=NO)Nc1ccc(F)c(Br)c1 [Compound 1, 4-({2-[(aminosulfonyl)amino]ethyl}amino)-N-(3-bromo-4-fluorophenyl)-N′-hydroxy-1,2,5-oxadiazole-3-carboximidamide]
[1]; [4]
  CL/F: 40.3 L/h
  Cmax: 715 nM
[1]; [5]
  AUC0-τ: 3.05 ± 1.36 µM·h
  CL/F: 43.3 ± 19.2 L/h
  Cmax: 742 ± 212 nM
  Cmin: 84 ± 63 nM
  t1/2: 2.4 ± 0.56 h
[1]; 50 mg BID, steady state, median
  tmax: 2.0 h
[1]; 50 mg QD
  trough concentrations: low and generally not quantifiable
[1]; 50 mg QD, steady state, geometric mean
  CL/F: 73.0 L/h
[1]; [6]
  AUC(0-t): 1.39 ± 0.256 µM·h
  CL/F: 73.8 ± 14.7 L/h
  Cmin: 0 ± 0 nM
  t1/2: 2.4 ± 0.26 h
[1]; 50 mg QD, steady state, median
  tmax: 2.0 h
[1]; [7]
  CL/F: 42.4 L/h
  Cmin: 171 nM
[1]; [8]
  AUC0-τ: 5.77 ± 2.34 µM·h
  CL/F: 45.8 ± 20.9 L/h
  Cmax: 1230 ± 348 nM
  Cmin: 201 ± 111 nM
  t1/2: 3.3 ± 0.75 h
[1]; 100 mg BID, steady state, median
  tmax: 2.0 h
[1]; [9]
  CL/F: 70.2 L/h
  Cmin: 251 nM
  t1/2: 3.5 h
[1]; [10]
  AUC0-τ: 9.78 ± 0.86 µM·h
  CL/F: 70.4 ± 6.19 L/h
  Cmax: 2480 ± 515 nM
  Cmin: 287 ± 146 nM
  t1/2: 3.9 ± 2.1 h
[1]; 300 mg BID, steady state, median
  tmax: 2.0 h
[1]; [11]
  CL/F: 51.8 L/h
  Cmin: 523 nM
[1]; [12]
  AUC0-τ: 19.6 ± 7.43 µM·h
  CL/F: 62.3 ± 52.3 L/h
  Cmax: 4390 ± 2020 nM
  Cmin: 624 ± 339 nM
  t1/2: 2.7 ± 0.62 h
[1]; 400 mg BID, steady state, median
  tmax: 2.0 h
[1]; [13]
  CL/F: 58.0 L/h
  Cmin: 562 nM
[1]; [14]
  AUC0-τ: 20.6 ± 6.82 µM·h
  CL/F: 60.5 ± 19.1 L/h
  Cmin: 604 ± 260 nM
  t1/2: 2.4 ± 0.37 h
[1]; 500 mg BID, steady state, median
  tmax: 2.0 h
[1]; 600 mg BID, 1-way crossover ANOVA
  effect of a high-fat meal on plasma exposures: not statistically significant
[1]; 600 mg BID, food effect cohort, Fasted, median
  tmax: 2.0 h
[1]; 600 mg BID, steady state
  decrease of geometric mean Cmax by a high-fat meal: approximately 10%
  increase of geometric mean AUC0-12h by a high-fat meal: 22%
[1]; [15]
  CL/F: 63.5 L/h
  Cmin: 731 nM
[1]; [16]
  CL/F: 66.4 ± 18.6 L/h
  Cmin: 932 ± 704 nM
  t1/2: 3.3 ± 0.97 h
[1]; 600 mg BID, steady state, median
  tmax: 2.0 h
[1]; 700 mg BID
  highest steady-state mean unbound daily AUC0-24h (=2×AUC0-12h): 2.2 µM·h
[1]; [17]
  CL/F: 47.2 L/h
  Cmin: 1260 nM
[1]; [18]
  AUC0-τ: 35.8 ± 15.5 µM·h
  CL/F: 49.5 ± 17.1 L/h
  Cmax: 6230 ± 2090 nM
  Cmin: 1320 ± 417 nM
[1]; 50 to 700 mg BID
  dose proportionality of exposures (Cmax and AUC): slightly less than proportional to dose; also recorded: less than proportional to dose
[1]; [19]
  exponent β of power-function regression, AUC0-12h vs Dose: 0.843
  exponent β of power-function regression, Cmax vs Dose: 0.779
[1]; BID dosing
  increase of mean AUC0-τ by systemic accumulation: 33%
  increase of mean Cmax by systemic accumulation: 16%
[1]; geometric mean, pooled 42 subjects, Cycle 1 Day 15
  oral-dose clearance CL/F: 55.3 L/h
[1]; human, estimated
  systemic clearance in percent hepatic blood flow: 29%
[1]; human, estimated as mean of cynomolgus monkey and beagle dog
  fraction of oral dose absorbed (Fa): 64%
[1]; human, plasma, oral, 50 mg, 50 mg BID, steady state, geometric mean, read-out: AUC0-t
  AUC(0-t): 2.58 µM·h
[1]; human, plasma, oral, 50 mg, 50 mg BID, steady state, geometric mean
  AUC: 2.83 µM·h
[1]; human, plasma, oral, 50 mg, 50 mg BID, steady state, geometric mean, read-out: t1/2 (converted)
  half-life: 2.3 h
[1]; human, plasma, oral, 50 mg, 50 mg BID, steady state, mean ± SD, read-out: AUC0-t
  AUC(0-t): 2.74 ± 1.08 µM·h
[1]; [20]
  Cmax: 365 nM
  AUC: 1.56 µM·h
[1]; human, plasma, oral, 50 mg, 50 mg QD, steady state, geometric mean, read-out: AUC0-t
  AUC(0-t): 1.37 µM·h
[1]; human, plasma, oral, 50 mg, 50 mg QD, steady state, geometric mean, read-out: t1/2 (converted)
  half-life: 2.4 h
[1]; [21]
  Cmax: 1190 nM
  AUC: 5.38 µM·h
[1]; human, plasma, oral, 100 mg, 100 mg BID, steady state, geometric mean, read-out: AUC0-t
  AUC(0-t): 4.97 µM·h
[1]; human, plasma, oral, 100 mg, 100 mg BID, steady state, geometric mean, read-out: t1/2 (converted)
  half-life: 3.2 h
[1]; human, plasma, oral, 100 mg, 100 mg BID, steady state, mean ± SD, read-out: AUC0-t
  AUC(0-t): 5.32 ± 2.16 µM·h
[1]; [22]
  Cmax: 2440 nM
  AUC: 9.75 µM·h
[1]; human, plasma, oral, 300 mg, 300 mg BID, steady state, geometric mean, read-out: AUC0-t
  AUC(0-t): 8.88 µM·h
[1]; human, plasma, oral, 300 mg, 300 mg BID, steady state, mean ± SD, read-out: AUC0-t
  AUC(0-t): 8.92 ± 0.841 µM·h
[1]; [23]
  Cmax: 3880 nM
  AUC: 17.6 µM·h
[1]; human, plasma, oral, 400 mg, 400 mg BID, steady state, geometric mean, read-out: AUC0-t
  AUC(0-t): 15 µM·h
[1]; human, plasma, oral, 400 mg, 400 mg BID, steady state, geometric mean, read-out: t1/2 (converted)
  half-life: 2.6 h
[1]; human, plasma, oral, 400 mg, 400 mg BID, steady state, mean ± SD, read-out: AUC0-t
  AUC(0-t): 16.7 ± 6.79 µM·h
[1]; [24]
  Cmax: 4480 nM
  AUC: 19.7 µM·h
[1]; human, plasma, oral, 500 mg, 500 mg BID, steady state, geometric mean, read-out: AUC0-t
  AUC(0-t): 17.3 µM·h
[1]; human, plasma, oral, 500 mg, 500 mg BID, steady state, geometric mean, read-out: t1/2 (converted)
  half-life: 2.4 h
[1]; human, plasma, oral, 500 mg, 500 mg BID, steady state, mean ± SD, read-out: AUC0-t
  AUC(0-t): 18.2 ± 6.46 µM·h
[1]; human, plasma, oral, 600 mg, 600 mg BID, Fed (high-fat meal), geometric mean
  Cmax: 4030 nM
[1]; human, plasma, oral, 600 mg, 600 mg BID, Fed (high-fat meal), geometric mean, read-out: AUC0-12 h
  AUC(0-t): 25.8 µM·h
[1]; human, plasma, oral, 600 mg, 600 mg BID, Fed (high-fat meal), mean ± SD
  Cmax: 4530 ± 2520 nM
[1]; human, plasma, oral, 600 mg, 600 mg BID, Fed (high-fat meal), mean ± SD, read-out: AUC0-12 h
  AUC(0-t): 29.5 ± 18.2 µM·h
[1]; human, plasma, oral, 600 mg, 600 mg BID, Fed (high-fat meal), median, read-out: Tmax
  tmax: 6 h
[1]; human, plasma, oral, 600 mg, 600 mg BID, food effect cohort, Fasted, geometric mean
  Cmax: 4520 nM
[1]; human, plasma, oral, 600 mg, 600 mg BID, food effect cohort, Fasted, geometric mean, read-out: AUC0-12 h
  AUC(0-t): 21.6 µM·h
[1]; human, plasma, oral, 600 mg, 600 mg BID, food effect cohort, Fasted, mean ± SD
  Cmax: 4820 ± 2160 nM
[1]; human, plasma, oral, 600 mg, 600 mg BID, food effect cohort, Fasted, mean ± SD, read-out: AUC0-12 h
  AUC(0-t): 22.9 ± 9.99 µM·h
[1]; [25]
  Cmax: 4520 nM
  AUC: 21.6 µM·h
[1]; human, plasma, oral, 600 mg, 600 mg BID, steady state, geometric mean, read-out: AUC0-t
  AUC(0-t): 18.3 µM·h
[1]; human, plasma, oral, 600 mg, 600 mg BID, steady state, geometric mean, read-out: t1/2 (converted)
  half-life: 3.2 h
[1]; human, plasma, oral, 600 mg, 600 mg BID, steady state, mean ± SD, read-out: AUC0-t
  AUC(0-t): 19.5 ± 8.4 µM·h
[1]; human, plasma, oral, 600 mg, 600 mg BID, steady state, read-out: prolongation of Tmax by a high-fat meal
  tmax: 4 h
[1]; [26]
  Cmax: 6000 nM
  AUC: 33.9 µM·h
[1]; human, plasma, oral, 700 mg, 700 mg BID, steady state, geometric mean, read-out: AUC0-t
  AUC(0-t): 29.6 µM·h
[1]; human, plasma, oral, 700 mg, 700 mg BID, steady state, geometric mean, read-out: t1/2 (converted)
  half-life: 2.9 h
[1]; human, plasma, oral, 700 mg, 700 mg BID, steady state, mean ± SD, read-out: AUC0-t
  AUC(0-t): 30.8 ± 10.5 µM·h
[1]; human, plasma, oral, from accumulation ratio based on AUC, read-out: effective t1/2 (converted)
  half-life: ~6 h
[1]; human, plasma, oral, read-out: mean systemic clearance CL (converted)
  clearance: 417 mL/min
[1]; plasma, oral, human, estimated, CL/CLoral, read-out: mean absolute bioavailability (F)
  bioavailability: 45%
[1]; repeat 50 mg QD administration
  systemic accumulation: no evidence of systemic accumulation
[1]; repeat BID dosing, judged by trough plasma concentrations
  day on which steady-state of PK was observed: ≤ 8 days
[1]; suggested by accumulation of Cmax and AUC0-τ, BID dosing
  effective half-life: 4 to 6 h
[2]
  unbound fraction in plasma: 3.1%
[3]
  NOAEL unbound AUC0-24h: 7.9 µM·h
